This is an account of results in patent publication US20220226349A1, “TOPICAL NEUROSTEROID FORMULATIONS” (Arizona Board of Regents on Behalf of the University of …, priority 2019, published 2022).

Molecules are shown by their SMILES. Values after ≈ are worked out from the molar mass of the structure shown. Read-outs that look alike come from different tables or passages of the source.

The subject of data set [1] is RPMI 2650 (human nasal) cell line. Description: In vitro cell viability (resazurin assay) after treatment of Allo, RPMI 2650. It is filed as cell-based. Particulars: RPMI 2650, Allo 0.001-10 μM, 72 h. The method, then:
(§1) Cell viability was evaluated in human skin (HaCaT)cell line by performing a resazurin assay after the treatment of Allo. Resazurin is a cell permeable redox indicator, and viable cells with active metabolism can reduce resazurin into resorufin, which is fluorescent (Riss et al., Cell Viability Assays, in Assay Guidance Manual, 2016). The HaCaT cells were grown in optimized Dubelco's Modified Eagle's medium (DMEM) (containing 2 mM of L-glutamine, 2 mM of sodium pyruvate, 4500 mg/L of glucose, and 1500 mg/L of sodium bicarbonate) supplemented with 10% fetal bovine serum (FBS). The TR 146 cells were grown in Ham's F12 medium supplemented with 10% FBS, 1% penicillin-streptomycin, and 0.2% L-Glutamine The RPMI 2650 cells were grown in Eagle's Minimum Essential medium (EMEM) supplemented with 10% FBS, 1% penicillin-streptomycin, and 0.2% amphotericin […]. Cells were plated in a 96-well plate at a density of 5,000 cells per each well (100 μl) and incubated at 37° C. and 5% CO2 for 48 h. Allo was prepared in cell culture media with the addition of 1% (v/v) ethanol to aid Allo solubility. The final concentration range of Allo treated to the cells was 0.001-10 μM. […] The cell viability was measured using Synergy H1 Multi-Mode Reader (BioTek Instruments Inc., Winooski, Vt.) at the excitation wavelength of 544 nm and emission wavelength of 590 nm.
In general terms: The colour change of resazurin is a common sign of viable cells or microbes.

The nature of data set [2]: Saturated solubility of Allo in receptor media. Type of data set: physicochemical. Particulars: aqueous with cosolvent or surfactant or cyclodextrin, thermodynamic from solid, 32° C., n=3, read-out: Solubility of Allo in receptor medium. As for the experimental part:
To select a receptor medium placed in the receptor compartment of the Franz chamber, the saturated solubilities of Allo in various media were determined. PBS at pH 7.4 has been commonly used to mimic the physiological condition. […] An excessive amount of Allo was added to 1 ml of the following media: (1) 10% (w/v) 2-hydroxypropyl-β-cyclodextrin (HβCD), (2) 40% (v/v) isopropyl alcohol (IPA), (3) 30% (v/v) CREMOPHOR EL®, and (4) 20% (v/v) IPA and 25% (v/v) CREMOPHOR EL®. The solutions were kept under constant magnetic stirring at 600 rpm for 24 h and placed in an incubator at 32° C. After 24 h, the excessive amount of Allo was filtered through a 0.2 μm syringe membrane and the filtered solution was injected into the HPLC for analysis.

Data set [3] has as its system TR 146 (human buccal) cell line. The data set can be described thus: In vitro cell viability (resazurin assay) after treatment of Allo, TR 146. Particulars: TR 146, Allo 0.001-10 μM, 72 h. Type of data set: cell-based. As for the experimental part: as §1
The test system of data set [4] is HaCaT (human skin) cell line. The data set can be described thus: In vitro cell viability (resazurin assay) after treatment of Allo, HaCaT. Type of data set: cell-based. The conditions noted are these: 72 h. As for the experimental part: as §1
A short description of data set [5]: Saturated solubility of Allo in oils. It is filed as physicochemical. Particulars: oil or lipid, thermodynamic from solid, room temperature, mean ± SD, n=3. The method, then: The solubility of Allo was determined in CAPMUL® MCM EP/NF (monodiglyceride of medium chain fatty acids, commercially available from Abitec Corporation (Columbus, Ohio), CAS Number 91744-32-0, or 26402-22-2, and 26402-26-6), isopropyl myristate, and oleic acid, by adding an excess amount of Allo to 1 mL of each oil in a glass vial. The vial was rocked for 72 h at room temperature. The excessive amount of Allo was filtered through a syringe membrane filter (0.2 μm). The amount of Allo dissolved in each oil was determined using HPLC.
An HPLC analytical method was developed by employing the SHIMADZU LC2010A HT for in vitro and ex vivo evaluation of Allo from microemulsions (MEs). Chromatographic separation was achieved using a PHENOMENEX® KINETEX® Phenyl-hexyl 2.6 μm reverse-phase (150×4.6 mm) column. The mobile phase was a mixture of 0.1% acetic acid in water and methanol, 20:80 (v/v) and flowed at 0.4 ml/min for 15 min The injection volume was 10 μl and the UV detection wavelength was 206 nm. A standard curve was constructed at the concentration range of 7.8-1,000

As for `CC(=O)[C@H]1CC[C@H]2[C@@H]3CC[C@H]4C[C@H](O)CC[C@]4(C)[C@H]3CC[C@]12C` [Allo, 3α-hydroxy-5α-pregnan-20-one], the Viability percent range is on record as 107.32-113.60% in data set [1]; 93.89-112.44% in data set [3]; 84.16-102.70% in data set [4] (HaCaT, Allo 0.001-10 μM). Moreover, the solubility (as a rule, how much of the substance goes into solution per volume) at 24 h came to 3450 ± 30 µg/mL (≈ 10.8 mM) in data set [2] (PBS (pH 7.4) containing 10% (w/v) HβCD); 3350 ± 120 µg/mL (≈ 10.5 mM) in data set [2] (PBS (pH 7.4) containing 20% (v/v) IPA and 25% (v/v) CREMOPHOR EL®); 1990 ± 170 µg/mL (≈ 6.25 mM) in data set [2] (PBS (pH 7.4) containing 30% (v/v) CREMOPHOR EL®); 1130 ± 130 µg/mL (≈ 3.55 mM) in data set [2] (PBS (pH 7.4) containing 40% (v/v) IPA). The “Viability compared to the control group” value in data set [4] (stated for the tested cell lines (HaCaT, TR 146, RPMI 2650), control without Allo) is reported as “No significant decrease in viability”. The solubility at 72 h in data set [5] (in CAPMUL® MCM) is 28400 ± 1920 µg/mL (≈ 89 mM); in data set [5] (in isopropyl myristate), 8880 ± 170 µg/mL (≈ 27.9 mM); in data set [5] (in oleic acid) it was 17800 ± 3970 µg/mL (≈ 55.9 mM).
